Assay results from patent US6924302B2, “Substituted triazole diamine derivatives as kinase inhibitors” (Ortho McNeil Pharmaceutical, Inc., priority 2000, dated 2005).
Where two headings read alike, the source gives them in different places.

Columns and labels:
CDK1:Cyclin-B = target: T1, CDK1:Cyclin-B (Homo sapiens, UniProt P06493); assay: CDK1 Screening Assay; format: biochemical; conditions: read-out: CDK1 IC50
T1 construct: purchased New England Biolabs 6020; host or cells: insect cells
Summary of the method: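 Human CDK1:cyclin-B (30 ng/well) with biotinylated histone-H1 peptide and ^33P-γ-ATP, 1 h at 30° C, 1% DMSO, on streptavidin FlashPlate; incorporation read by scintillation.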

[1] = target: T2, Calmodulin Kinase (calmodulin-dependent protein kinase 2) (Rattus norvegicus, UniProt P11275); assay: Kinase Selectivity Assay Calmodulin Kinase; format: biochemical; conditions: Kinase Selectivity, Tables 2a-2k; read-out: Calmodulin Kinase 2 IC50
T2 construct: a truncated version of the alpha subunit of the rat protein; purchased New England Biolabs 6060; host or cells: insect cells
Summary of the method: (§1)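 Inhibition was measured as reduced ^33P-γ-ATP labelling of a biotinylated peptide substrate immobilized on streptavidin plates after one hour at 30° C.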

[2] = target: T3, Glycogen Synthase Kinase-3 (beta isoform) (Oryctolagus cuniculus, UniProt G1T8E2); assay: Kinase Selectivity Assay Glycogen Synthase Kinase-3; format: biochemical, rabbit; conditions: Kinase Selectivity, Tables 2a-2k; read-out: GSK-3 IC50
T3 construct: purchased New England Biolabs 6040; host or cells: E. coli
Summary of the method: as §1

[3] = target: T4, MAP Kinase (ERK-2 isoform) (Rattus norvegicus, UniProt P63086); assay: Kinase Selectivity Assay MAP Kinase (ERK-2); format: biochemical; conditions: Kinase Selectivity, Tables 2a-2k; read-out: ERK 2 IC50
T4 construct: polyhistidine (N); host or cells: E. coli
Summary of the method: as §1

[4] = target: T5, Casein Kinase 1 (CK1 delta isoform) (Rattus norvegicus, UniProt Q06486); assay: Kinase Selectivity Assay Casein Kinase 1; format: biochemical; conditions: Tables 2a-2k, read-out: Caseine Kinase 1 IC50
T5 construct: a truncation at amino acid 318 of the C-terminal portion of the rat CK1 delta isoform; purchased New England Biolabs 6030; host or cells: E. coli
T5 sequence (Q06486 1-317): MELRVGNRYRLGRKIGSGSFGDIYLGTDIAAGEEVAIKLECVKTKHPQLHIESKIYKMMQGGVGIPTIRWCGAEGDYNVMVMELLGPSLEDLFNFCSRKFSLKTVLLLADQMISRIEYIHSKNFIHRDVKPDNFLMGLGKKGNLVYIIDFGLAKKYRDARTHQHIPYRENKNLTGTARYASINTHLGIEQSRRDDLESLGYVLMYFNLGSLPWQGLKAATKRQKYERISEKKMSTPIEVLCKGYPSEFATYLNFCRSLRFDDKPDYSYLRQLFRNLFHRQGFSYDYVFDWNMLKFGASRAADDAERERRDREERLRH
Summary of the method: as §1

[5] = Kinase Selectivity, Tables 2a-2k

T3 sequence (G1T8E2 1-432): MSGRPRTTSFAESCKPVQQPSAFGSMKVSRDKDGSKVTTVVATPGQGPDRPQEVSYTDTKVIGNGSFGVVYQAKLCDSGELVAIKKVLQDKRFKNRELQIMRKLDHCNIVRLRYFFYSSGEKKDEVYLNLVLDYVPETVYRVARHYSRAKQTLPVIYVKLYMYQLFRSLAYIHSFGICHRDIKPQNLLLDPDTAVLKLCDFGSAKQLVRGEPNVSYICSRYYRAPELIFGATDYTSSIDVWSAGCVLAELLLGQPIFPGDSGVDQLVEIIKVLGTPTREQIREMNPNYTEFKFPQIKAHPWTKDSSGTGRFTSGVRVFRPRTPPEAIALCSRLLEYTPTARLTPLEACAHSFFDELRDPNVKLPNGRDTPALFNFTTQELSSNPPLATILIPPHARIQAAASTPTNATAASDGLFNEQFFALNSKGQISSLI
T4 sequence (P63086 whole entry, canonical isoform): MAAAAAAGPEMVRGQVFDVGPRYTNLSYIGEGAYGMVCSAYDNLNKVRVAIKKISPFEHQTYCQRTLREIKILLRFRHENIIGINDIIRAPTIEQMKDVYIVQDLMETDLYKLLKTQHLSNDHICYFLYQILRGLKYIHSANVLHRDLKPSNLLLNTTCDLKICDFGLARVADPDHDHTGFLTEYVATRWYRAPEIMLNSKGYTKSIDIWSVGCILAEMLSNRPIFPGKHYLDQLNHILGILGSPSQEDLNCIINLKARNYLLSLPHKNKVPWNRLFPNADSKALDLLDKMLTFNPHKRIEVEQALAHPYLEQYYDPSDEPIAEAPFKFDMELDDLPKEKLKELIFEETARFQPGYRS
T1 sequence (P06493 whole entry): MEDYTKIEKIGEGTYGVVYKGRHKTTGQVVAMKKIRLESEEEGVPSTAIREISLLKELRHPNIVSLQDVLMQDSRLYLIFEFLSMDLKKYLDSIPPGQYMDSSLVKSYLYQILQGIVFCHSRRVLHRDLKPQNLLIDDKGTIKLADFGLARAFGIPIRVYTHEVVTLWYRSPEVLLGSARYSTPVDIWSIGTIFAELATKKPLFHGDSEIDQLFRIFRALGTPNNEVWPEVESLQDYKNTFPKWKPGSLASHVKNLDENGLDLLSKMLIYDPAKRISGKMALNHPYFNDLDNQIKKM
T1 sequence (P14635 whole entry partner): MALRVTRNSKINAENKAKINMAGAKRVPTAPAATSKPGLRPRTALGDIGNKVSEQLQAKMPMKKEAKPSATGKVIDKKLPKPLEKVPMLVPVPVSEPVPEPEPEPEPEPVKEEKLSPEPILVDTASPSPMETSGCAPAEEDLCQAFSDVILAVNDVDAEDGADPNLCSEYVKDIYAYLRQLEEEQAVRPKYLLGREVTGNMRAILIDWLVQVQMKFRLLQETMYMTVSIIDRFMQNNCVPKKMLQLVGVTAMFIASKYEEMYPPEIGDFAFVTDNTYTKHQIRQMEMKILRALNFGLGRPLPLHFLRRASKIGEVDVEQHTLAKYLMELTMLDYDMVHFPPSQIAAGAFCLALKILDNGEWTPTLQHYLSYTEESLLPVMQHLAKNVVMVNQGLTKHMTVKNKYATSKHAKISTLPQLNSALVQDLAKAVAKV

Row | SMILES | IC50 (CDK1:Cyclin-B; [5]) [nM] | IC50 (CDK1:Cyclin-B; Table 1) [nM] | IC50 [1] [nM] | IC50 [2] [nM] | IC50 [3] [nM] | IC50 [4] [nM]
1 | Cc1cc(C)c(C(=O)n2nc(Nc3ccc(NS(C)(=O)=O)cc3)nc2N)s1 [Cpd 108, N-[4-[[5-amino-1-[(3,5-dimethyl-2-thienyl)carbonyl]-1H-1,2,4-triazol-3-5 yl]amino]phenyl]-methanesulfonamide] | 66 | 65.7 | > 10000 | 23 | 2390 | 816
2 | Cc1ccsc1C(=O)n1nc(Nc2ccc(N3CCNC3=O)cc2)nc1N [Cpd 113, 1-[4-[[5-amino-1-[(3-methyl-2-thienyl)carbonyl]-1H-1,2,4-triazol-3-yl]amino]phenyl]-2-imidazolidinone] | 254 | 254 | > 10000 | 71 | > 100000 | 318
3 | Cc1ccsc1C(=O)n1nc(Nc2ccc(N3CCCS3(=O)=O)cc2)nc1N [Cpd 116, N^3-[4-(1,1-dioxido-2-isothiazolidinyl)phenyl]-1-[(3-methyl-2-thienyl)carbonyl]-1H-1,2,4-triazole-3,5-diamine] | 21 | 20.8 | > 100000 | 62 | > 100000 | > 1000
4 | Nc1nc(Nc2ccc(S(=O)(=O)Nc3ccccn3)cc2)nn1C(=O)c1c(F)cccc1F [Cpd 118, 4-[[5-amino-1-(2,6-difluorobenzoyl)-1H-1,2,4-triazol-3-yl]amino]-N-(2-pyridinyl)-benzenesulfonamide] | 330 | 330 | > 100000 | 159 | > 100000 | > 100000
5 | Cc1cc(C)c(C(=O)n2nc(Nc3ccc(S(=O)(=O)Nc4ccccn4)cc3)nc2N)s1 [Cpd 120] | 277 | 277 | > 100000 | 18 | > 100000 | > 10000
6 | Cc1ccc(F)c(C(=O)n2nc(N)nc2Nc2ccc(S(N)(=O)=O)cc2)c1F [Cpd 123, 4-[[3-amino-1-(2,6-difluoro-3-methylbenzoyl)-1H-1,2,4-triazol-5-yl]amino]-benzenesulfonamide] | 2050 | 2050 | > 100000 | 3010 | > 100000 | > 100000
